Reference: article PMC5218480 (PLoS ONE, 2017)

Test system: MV-4-11 cells
Test: Gene expression microarray analysis (Affymetrix PrimeView) and GSEA
Assay type: cell-based, human
Parameters: RFU PODN (11730768_x_at) / Fold change /veh PODN (11730768_x_at) / RFU LINC00158 (11744669_a_at) / Fold change /veh LINC00158 (11744669_a_at) / RFU DUSP10 (11751237_a_at) / Fold change /veh DUSP10 (11751237_a_at) / RFU ID3 (11757404_x_at) / Fold change /veh ID3 (11757404_x_at) / RFU PLEKHG5 (11737974_s_at) / Fold change /veh PLEKHG5 (11737974_s_at) / RFU LRRC4B (11730491_at) / Fold change /veh LRRC4B (11730491_at) / RFU GIMAP4 (11747438_a_at) / Fold change /veh GIMAP4 (11747438_a_at) / RFU KRT8 (11758183_x_at) / Fold change /veh KRT8 (11758183_x_at) / RFU CNN1 (11734310_a_at) / Fold change /veh CNN1 (11734310_a_at) / RFU VPS37D (11726825_at) / Fold change /veh VPS37D (11726825_at) / RFU C10orf10 (11716522_x_at) / Fold change /veh C10orf10 (11716522_x_at) / RFU KIR2DL2 /// KIR2DL4 /// KIR2DL5A /// KIR2DL5B /// KIR2DS1 /// KIR2DS2 /// KIR2DS3 /// KIR2DS4 /// KIR3DL3 /// KIR3DL3 /// KIR3DS1 (11738374_at) / Fold change /veh KIR2DL2 /// KIR2DL4 /// KIR2DL5A /// KIR2DL5B /// KIR2DS1 /// KIR2DS2 /// KIR2DS3 /// KIR2DS4 /// KIR3DL3 /// KIR3DL3 /// KIR3DS1 (11738374_at) / RFU C1QL1 (11718748_at) / Fold change /veh C1QL1 (11718748_at) / RFU TMPRSS4 (11747572_a_at) / Fold change /veh TMPRSS4 (11747572_a_at) / RFU HAMP (11756126_x_at) / Fold change /veh HAMP (11756126_x_at) / RFU RNFT2 (11725882_a_at) / Fold change /veh RNFT2 (11725882_a_at) / RFU NR4A2 (11747474_a_at) / Fold change /veh NR4A2 (11747474_a_at) / RFU ABCC12 (11746883_a_at) / Fold change /veh ABCC12 (11746883_a_at) / RFU TMEM136 (11760407_x_at) / Fold change /veh TMEM136 (11760407_x_at) / RFU CLDN22 /// WWC2 (11732394_at) / Fold change /veh CLDN22 /// WWC2 (11732394_at) / RFU HLA-DPB1 (11760878_x_at) / Fold change /veh HLA-DPB1 (11760878_x_at) / RFU SPINT1 (11716480_a_at) / Fold change /veh SPINT1 (11716480_a_at) / RFU GAP43 (11754022_s_at) / Fold change /veh GAP43 (11754022_s_at) / RFU A4GNT (11735810_at) / Fold change /veh A4GNT (11735810_at) / RFU PRB3 (11715151_x_at) / Fold change /veh PRB3 (11715151_x_at) / RFU TUBB4B (11761932_at) / Fold change /veh TUBB4B (11761932_at) / RFU CAPN14 (11732068_a_at) / Fold change /veh CAPN14 (11732068_a_at) / RFU TMCC2 (11721928_a_at) / Fold change /veh TMCC2 (11721928_a_at) / RFU IRGQ (11745062_a_at) / Fold change /veh IRGQ (11745062_a_at) / RFU FAM174B (11720279_a_at) / Fold change /veh FAM174B (11720279_a_at) / RFU TMPRSS4 (11748680_a_at) / Fold change /veh TMPRSS4 (11748680_a_at) / RFU FAM212B (11763350_a_at) / Fold change /veh FAM212B (11763350_a_at) / RFU PLEKHG5 (11743358_a_at) / Fold change /veh PLEKHG5 (11743358_a_at) / RFU ZSCAN30 (11745921_a_at) / Fold change /veh ZSCAN30 (11745921_a_at) / RFU CMKLR1 (11741424_a_at) / Fold change /veh CMKLR1 (11741424_a_at) / RFU LOC101060620 /// MAPK8IP1 (11723275_at) / Fold change /veh LOC101060620 /// MAPK8IP1 (11723275_at) / RFU SPTSSB (11747773_x_at) / Fold change /veh SPTSSB (11747773_x_at) / RFU PRSS12 (11739890_at) / Fold change /veh PRSS12 (11739890_at) / RFU BIN1 (11741810_x_at) / Fold change /veh BIN1 (11741810_x_at) / RFU WNT11 (11732464_a_at) / Fold change /veh WNT11 (11732464_a_at) / RFU C10orf10 (11716521_a_at) / Fold change /veh C10orf10 (11716521_a_at) / RFU C5orf56 (11738089_at) / Fold change /veh C5orf56 (11738089_at) / RFU CYB561 (11721691_x_at) / Fold change /veh CYB561 (11721691_x_at) / RFU ANKRD19P (11752326_a_at) / Fold change /veh ANKRD19P (11752326_a_at) / RFU OR2T12 /// OR2T33 /// OR2T8 (11738714_s_at) / Fold change /veh OR2T12 /// OR2T33 /// OR2T8 (11738714_s_at) / RFU VCAN (11748164_a_at) / Fold change /veh VCAN (11748164_a_at) / RFU JSRP1 (11732532_at) / Fold change /veh JSRP1 (11732532_at) / RFU KRTAP10-11 (11738290_x_at) / Fold change /veh KRTAP10-11 (11738290_x_at) / RFU MYO3A (11730013_a_at) / Fold change /veh MYO3A (11730013_a_at) / RFU EBF3 (11725865_a_at) / Fold change /veh EBF3 (11725865_a_at) / RFU CAMK2N1 (11719241_x_at) / Fold change /veh CAMK2N1 (11719241_x_at) / RFU C5orf56 (11738088_a_at) / Fold change /veh C5orf56 (11738088_a_at) / RFU OLFML3 (11715873_a_at) / Fold change /veh OLFML3 (11715873_a_at) / RFU LOC100653217 /// NTM (11731650_a_at) / Fold change /veh LOC100653217 /// NTM (11731650_a_at) / RFU MAPK11 (11762145_a_at) / Fold change /veh MAPK11 (11762145_a_at) / RFU FIZ1 (11724087_x_at) / Fold change /veh FIZ1 (11724087_x_at) / RFU OASL (11726364_x_at) / Fold change /veh OASL (11726364_x_at) / RFU SOX15 (11748057_x_at) / Fold change /veh SOX15 (11748057_x_at) / RFU CD79A (11719716_a_at) / Fold change /veh CD79A (11719716_a_at) / RFU HIST1H1D (11736915_at) / Fold change /veh HIST1H1D (11736915_at) / RFU CASKIN2 (11723855_a_at) / Fold change /veh CASKIN2 (11723855_a_at) / RFU LOC730098 (11760151_x_at) / Fold change /veh LOC730098 (11760151_x_at) / RFU OR4N2 (11742367_at) / Fold change /veh OR4N2 (11742367_at) / RFU PRRT2 (11749266_a_at) / Fold change /veh PRRT2 (11749266_a_at) / RFU SNX32 (11753110_a_at) / Fold change /veh SNX32 (11753110_a_at) / RFU CDHR5 (11726645_a_at) / Fold change /veh CDHR5 (11726645_a_at) / RFU RCAN1 (11760418_a_at) / Fold change /veh RCAN1 (11760418_a_at) / RFU FAM167A (11723789_a_at) / Fold change /veh FAM167A (11723789_a_at) / RFU FAM26E (11764081_at) / Fold change /veh FAM26E (11764081_at) / RFU ISYNA1 (11749810_s_at) / Fold change /veh ISYNA1 (11749810_s_at) / RFU ACY1 (11761880_at) / Fold change /veh ACY1 (11761880_at) / RFU 11764098_at / Fold change /veh 11764098_at / RFU SAMD14 (11745864_x_at) / Fold change /veh SAMD14 (11745864_x_at) / RFU NPB (11741838_a_at) / Fold change /veh NPB (11741838_a_at) / RFU TMPRSS6 (11731388_a_at) / Fold change /veh TMPRSS6 (11731388_a_at) / RFU KRTAP10-2 (11738614_at) / Fold change /veh KRTAP10-2 (11738614_at) / RFU ARHGAP8 /// PRR5-ARHGAP8 (11727945_x_at) / Fold change /veh ARHGAP8 /// PRR5-ARHGAP8 (11727945_x_at) / RFU KRTAP5-7 /// NADSYN1 (11734609_at) / Fold change /veh KRTAP5-7 /// NADSYN1 (11734609_at) / RFU RASL12 (11751679_a_at) / Fold change /veh RASL12 (11751679_a_at) / RFU CDKN2B (11736163_a_at) / Fold change /veh CDKN2B (11736163_a_at) / RFU PRF1 (11729649_at) / Fold change /veh PRF1 (11729649_at) / RFU, ZNF638 /// ZNF638-IT1 / Fold change vs veh, ZNF638 /// ZNF638-IT1 / RFU, PANK3 / Fold change vs veh, PANK3 / RFU, SH3YL1 / Fold change vs veh, SH3YL1 / RFU, ZEB2 / Fold change vs veh, ZEB2 / RFU, NRIP1 / Fold change vs veh, NRIP1 / RFU, PTTG1IP / Fold change vs veh, PTTG1IP / RFU, CAPN2 / Fold change vs veh, CAPN2 / RFU, MED14 / Fold change vs veh, MED14 / RFU, SNORA58 / Fold change vs veh, SNORA58 / RFU, C1orf63 / Fold change vs veh, C1orf63 / RFU, LRRFIP1 / Fold change vs veh, LRRFIP1 / RFU, NDUFAF7 / Fold change vs veh, NDUFAF7 / RFU, SLC12A2 / Fold change vs veh, SLC12A2 / RFU, IBTK / Fold change vs veh, IBTK / RFU, ESF1 / Fold change vs veh, ESF1 / Fold change vs veh, TMEM50B / RFU, TAOK1 / Fold change vs veh, TAOK1 / RFU, ACBD3 / Fold change vs veh, ACBD3 / RFU, TMA16 / Fold change vs veh, TMA16 / RFU, RWDD3 / Fold change vs veh, RWDD3 / RFU, BCAT1 / Fold change vs veh, BCAT1 / RFU, EDEM3 / Fold change vs veh, EDEM3 / RFU, TMEM33 / Fold change vs veh, TMEM33 / RFU, WDR75 / Fold change vs veh, WDR75 / RFU, AHCTF1 / Fold change vs veh, AHCTF1 / RFU, TFRC / Fold change vs veh, TFRC / RFU, ZDHHC17 / Fold change vs veh, ZDHHC17 / RFU, NOM1 / Fold change vs veh, NOM1 / RFU, ARL8B / Fold change vs veh, ARL8B / RFU, ZBTB11 / Fold change vs veh, ZBTB11 / RFU, TAMM41 / Fold change vs veh, TAMM41 / RFU, KIAA1704 /// LOC100996395 / Fold change vs veh, KIAA1704 /// LOC100996395 / RFU, ING1 / Fold change vs veh, ING1 / RFU, TRMT61B / Fold change vs veh, TRMT61B / RFU, FUBP3 / Fold change vs veh, FUBP3 / RFU, TP53 / Fold change vs veh, TP53 / RFU, TNKS2 / Fold change vs veh, TNKS2 / RFU, ZFP14 / Fold change vs veh, ZFP14 / RFU, ACTR2 / Fold change vs veh, ACTR2 / RFU, PPP3R1 / Fold change vs veh, PPP3R1 / RFU, PIK3R1 / Fold change vs veh, PIK3R1 / RFU, HNRNPA1 / Fold change vs veh, HNRNPA1 / RFU, RNF170 / Fold change vs veh, RNF170 / RFU, ZNF28 / Fold change vs veh, ZNF28 / RFU, RNGTT / Fold change vs veh, RNGTT / RFU, OGT / Fold change vs veh, OGT / RFU, BRD1 / Fold change vs veh, BRD1 / RFU, MARS / Fold change vs veh, MARS / RFU, ZNF655 / Fold change vs veh, ZNF655 / RFU, FAHD1 / Fold change vs veh, FAHD1 / RFU, BDP1 / Fold change vs veh, BDP1 / RFU, LRRCC1 / Fold change vs veh, LRRCC1 / RFU, ARID1A / Fold change vs veh, ARID1A / RFU, ZNF146 / Fold change vs veh, ZNF146 / RFU, ZNF330 / Fold change vs veh, ZNF330 / RFU, GPN3 / Fold change vs veh, GPN3 / RFU, C9orf123 / Fold change vs veh, C9orf123 / RFU, N4BP2L2 / Fold change vs veh, N4BP2L2 / RFU, ARFIP1 / Fold change vs veh, ARFIP1 / RFU, FAM179B / Fold change vs veh, FAM179B / RFU, BCL10 / Fold change vs veh, BCL10 / RFU, UHRF1BP1L / Fold change vs veh, UHRF1BP1L / RFU, BET1 / Fold change vs veh, BET1 / RFU, CNOT2 / Fold change vs veh, CNOT2 / RFU, ZNF268 / Fold change vs veh, ZNF268 / Fold change vs veh, ZNF507 / RFU, DGCR2 / Fold change vs veh, DGCR2 / RFU, WDSUB1 / Fold change vs veh, WDSUB1 / Fold change vs veh, HSP90B1 /// MIR3652 / RFU, ADSS / Fold change vs veh, ADSS / RFU, GK / Fold change vs veh, GK / RFU, ZNF148 / Fold change vs veh, ZNF148 / RFU, TAF9 / Fold change vs veh, TAF9 / RFU, SLC1A5 / Fold change vs veh, SLC1A5 / RFU, SLMO2 / Fold change vs veh, SLMO2 / RFU, ABCC4 / Fold change vs veh, ABCC4 / RFU, LOC101060439 /// RAP1B / Fold change vs veh, LOC101060439 /// RAP1B / RFU, RFX7 / Fold change vs veh, RFX7 / RFU, GTPBP10 / Fold change vs veh, GTPBP10 / RFU, CNEP1R1 / Fold change vs veh, CNEP1R1 / RFU, BIVM-ERCC5 /// ERCC5 / Fold change vs veh, BIVM-ERCC5 /// ERCC5 / RFU, ILF3 / Fold change vs veh, ILF3 / RFU 11762660_at / Fold change /veh 11762660_at / RFU VCAN (11757783_s_at) / Fold change /veh VCAN (11757783_s_at) / RFU DDX43 (11728927_at) / Fold change /veh DDX43 (11728927_at) / RFU KRT8 (11758188_x_at) / Fold change /veh KRT8 (11758188_x_at) / RFU NKD1 (11759106_at) / Fold change /veh NKD1 (11759106_at) / RFU SRD5A1 (11742802_a_at) / Fold change /veh SRD5A1 (11742802_a_at) / RFU TPSAB1 /// TPSB2 (11721975_s_at) / Fold change /veh TPSAB1 /// TPSB2 (11721975_s_at) / RFU GSTM3 (11746129_a_at) / Fold change /veh GSTM3 (11746129_a_at) / RFU IL23R (11737362_x_at) / Fold change /veh IL23R (11737362_x_at) / RFU TMEM51 (11727254_a_at) / Fold change /veh TMEM51 (11727254_a_at) / RFU PIWIL2 (11732686_x_at) / Fold change /veh PIWIL2 (11732686_x_at) / RFU ORM1 (11744905_x_at) / Fold change /veh ORM1 (11744905_x_at) / RFU CCDC152 (11743942_at) / Fold change /veh CCDC152 (11743942_at) / RFU ECM1 (11717891_a_at) / Fold change /veh ECM1 (11717891_a_at) / RFU IL23R (11748794_a_at) / Fold change /veh IL23R (11748794_a_at) / RFU TNFAIP8L3 (11732012_x_at) / Fold change /veh TNFAIP8L3 (11732012_x_at) / RFU MBOAT4 (11741988_at) / Fold change /veh MBOAT4 (11741988_at) / RFU 11764193_at / Fold change /veh 11764193_at / RFU TMEM53 (11763286_at) / Fold change /veh TMEM53 (11763286_at) / RFU MAGEB2 (11727129_at) / Fold change /veh MAGEB2 (11727129_at) / RFU TMEM200A (11744735_a_at) / Fold change /veh TMEM200A (11744735_a_at) / RFU CCDC152 (11751479_a_at) / Fold change /veh CCDC152 (11751479_a_at) / RFU FAM211A (11726209_a_at) / Fold change /veh FAM211A (11726209_a_at) / RFU RGS16 (11746705_a_at) / Fold change /veh RGS16 (11746705_a_at) / RFU VCAN (11755009_s_at) / Fold change /veh VCAN (11755009_s_at) / RFU RHOB (11743442_s_at) / Fold change /veh RHOB (11743442_s_at) / RFU RGS16 (11720943_a_at) / Fold change /veh RGS16 (11720943_a_at) / RFU RGS16 (11720944_at) / Fold change /veh RGS16 (11720944_at) / RFU, VPS4B / Fold change vs veh, VPS4B / RFU, CREB1 / Fold change vs veh, CREB1 / RFU, DNAJC13 / Fold change vs veh, DNAJC13 / RFU, GNAQ / Fold change vs veh, GNAQ / RFU, CDK5R1 / Fold change vs veh, CDK5R1 / RFU, ZRANB3 / Fold change vs veh, ZRANB3 / RFU, CUL4A / Fold change vs veh, CUL4A / RFU, CCNY / Fold change vs veh, CCNY / RFU, UFL1 / Fold change vs veh, UFL1 / RFU, COG3 / Fold change vs veh, COG3 / RFU, DIAPH2 / Fold change vs veh, DIAPH2 / RFU, SKA2 / Fold change vs veh, SKA2 / RFU, AFF3 / Fold change vs veh, AFF3 / RFU, LMF1 / Fold change vs veh, LMF1 / RFU, IPO11 / Fold change vs veh, IPO11 / RFU, DFFB / Fold change vs veh, DFFB / RFU, FOXP1 / Fold change vs veh, FOXP1 / RFU, CARD8 / Fold change vs veh, CARD8 / RFU, STRN3 / Fold change vs veh, STRN3 / RFU, ADK / Fold change vs veh, ADK / RFU, RASSF2 / Fold change vs veh, RASSF2 / RFU, WIPF1 / Fold change vs veh, WIPF1 / RFU, LARP1B / Fold change vs veh, LARP1B / RFU, RASA1 / Fold change vs veh, RASA1 / RFU, RB1 / Fold change vs veh, RB1 / RFU, PPFIA1 / Fold change vs veh, PPFIA1 / RFU, MAT2A / Fold change vs veh, MAT2A / RFU, CCT5 / Fold change vs veh, CCT5 / RFU, WDR92 / Fold change vs veh, WDR92 / RFU, CUX1 / Fold change vs veh, CUX1 / RFU, TTC7A / Fold change vs veh, TTC7A / RFU, TMEM135 / Fold change vs veh, TMEM135 / RFU, DEPTOR / Fold change vs veh, DEPTOR / RFU, CPM / Fold change vs veh, CPM / RFU, DNAJB6 / Fold change vs veh, DNAJB6 / RFU, CACNA2D3 / Fold change vs veh, CACNA2D3 / RFU, DTX4 / Fold change vs veh, DTX4 / RFU, TFCP2 / Fold change vs veh, TFCP2 / RFU, GMCL1 /// GMCL1P1 / Fold change vs veh, GMCL1 /// GMCL1P1 / RFU, AEBP2 / Fold change vs veh, AEBP2 / RFU, SNHG1 /// SNORD22 /// SNORD25 /// SNORD26 /// SNORD27 /// SNORD28 /// SNORD29 /// SNORD31 / Fold change vs veh, SNHG1 /// SNORD22 /// SNORD25 /// SNORD26 /// SNORD27 /// SNORD28 /// SNORD29 /// SNORD31 / Fold change (Aza/veh), C12orf56 (ProbeSet 11735607_a_at) / Fold change (ACY-1035/veh), C12orf56 (ProbeSet 11735607_a_at) / Fold change (Aza/veh), FGFR1OP (ProbeSet 11751329_s_at) / Fold change (ACY-1035/veh), FGFR1OP (ProbeSet 11751329_s_at) / Fold change (Aza/veh), VPS36 (ProbeSet 11739960_a_at) / Fold change (ACY-1035/veh), VPS36 (ProbeSet 11739960_a_at) / RFU SYPL1 (11715823_x_at) / Fold change /veh SYPL1 (11715823_x_at) / RFU IGFBP7 (11715501_s_at) / Fold change /veh IGFBP7 (11715501_s_at) / RFU REEP3 (11722064_at) / Fold change /veh REEP3 (11722064_at) / RFU IGLL1 (11728026_x_at) / Fold change /veh IGLL1 (11728026_x_at): dose or concentration left out as unconfirmed
Conditions: MV-4-11 cells, 48 hours

**Q.** Nc1ccc(-c2cccs2)cc1NC(=O)c1ccc2c(c1)cc(C1CC1)n2CCN1CCOCC1 [ACY-1035] was tested. Which “Fold change /veh SYPL1 (11715823_x_at)” value did it give?
**A.** The value was 0.54.
